Reference: patent US20230172204A1 (BASF SE, priority 2020, published 2023)

Tests used:
[1] = test system: Phakopsora pachyrhizi (F129L); test: Protective control of soybean rust on soybeans (PHAKPA P2); format: in vivo; conditions: soybean rust F129L; for % PHAKPA (F129L) Disease level P2 at 4 ppm: protective P2, 4 ppm; for % PHAKPA (F129L) Disease level P2 at 16 ppm: protective P2, 16 ppm
[2] = test system: Phakopsora pachyrhizi (F129L); test: Protective control of soybean rust on soybeans (PHAKPA P6); format: in vivo; conditions: soybean rust F129L; for % PHAKPA (F129L) Disease level P6 at 4 ppm: protective P6, 4 ppm; for % PHAKPA (F129L) Disease level P6 at 16 ppm: protective P6, 16 ppm

| Structure (SMILES) | % PHAKPA (F129L) Disease level P2 at 4 ppm [1] | % PHAKPA (F129L) Disease level P2 at 16 ppm [1] | % PHAKPA (F129L) Disease level P6 at 4 ppm [2] | % PHAKPA (F129L) Disease level P6 at 16 ppm [2] |
| --- | --- | --- | --- | --- |
| CO/N=C(/C(=O)OC)c1cccc(C)c1CO/N=C(\C)c1cc(Cl)cc(C(F)(F)F)c1 [compound 33] | 50% | 33% | 60% | 75% |
| CO/N=C(/C(=O)OC)c1cccc(C)c1CO/N=C(\C)c1cc(C(F)(F)F)cc(C(F)(F)F)c1 [compound 34] | 100% | 90% | 90% | 83% |
| CNC(=O)/C(=N/OC)c1cccc(C)c1CO/N=C(\C)c1ccccc1C(F)(F)F [compound 38] | 37% | 4% | 47% | 1% |
| CNC(=O)/C(=N/OC)c1cccc(C)c1CO/N=C(\C)c1ccc(C(F)(F)F)cc1 [compound 39] | 30% | 4% | 15% | 2% |
| CO/N=C(/C(=O)OC)c1cccc(C)c1CO/N=C(\C)c1ccc(Cl)c(Cl)c1 [compound 40] | 40% | 18% | 63% | 22% |
| CNC(=O)/C(=N/OC)c1cccc(C)c1CO/N=C(\C)c1cccc(-c2cc(C)on2)c1 [compound 42] | 60% | 23% | 60% | 20% |
| CO/N=C(/C(=O)OC)c1cccc(C)c1CO/N=C(\C)c1cccc(-c2cc(C)on2)c1 [compound 43] | 100% | 100% | 97% | 87% |
| CNC(=O)/C(=N/OC)c1cccc(C)c1CO/N=C(\C)c1cccc(N2CC(F)(F)C2)c1 [compound 44] | 77% | 17% | 77% | 21% |
| CNC(=O)/C(=N/OC)c1cccc(C)c1CO/N=C(\C)c1cc(C#N)cc(C(F)(F)F)c1 [compound 46] | 63% | 50% | 90% | 57% |
| CNC(=O)/C(=N/OC)c1cccc(C)c1CO/N=C(\C)c1ccc(F)c(C(F)(F)F)c1 [compound 47] | 13% | 0% | 12% | 0% |
| CO/N=C(/C(=O)OC)c1cccc(C)c1CO/N=C(\C)c1cc(C#N)cc(C(F)(F)F)c1 [compound 48] | 100% | 80% | 100% | 67% |
| CO/N=C(/C(=O)OC)c1cccc(C)c1CO/N=C(\C)c1ccc(F)c(C(F)(F)F)c1 [compound 49] | 60% | 18% | 60% | 7% |
| CNC(=O)/C(=N/OC)c1cccc(C)c1CO/N=C(\C)c1cc(F)cc(C(F)(F)F)c1 [compound 50] | 2% | 1% | 6% | 0% |
| CO/N=C(/C(=O)OC)c1cccc(C)c1CO/N=C(\C)c1cc(F)cc(C(F)(F)F)c1 [compound 51] | 28% | 2% | 15% | 0% |
| CO/N=C(/C(=O)OC)c1cccc(C)c1CO/N=C(\C)c1cccc(C#CC(F)(F)F)c1 [compound 52] | 63% | 28% | 90% | 43% |
| C#Cc1cccc(/C(C)=N/OCc2c(C)cccc2/C(=N\OC)C(=O)OC)c1 [compound 53] | 63% | 17% | 100% | 47% |
| C#Cc1cccc(/C(C)=N/OCc2c(C)cccc2/C(=N\OC)C(=O)NC)c1 [compound 54] | 0% | 1% | 20% | 0% |
| C#Cc1cc(F)cc(/C(C)=N/OCc2c(C)cccc2/C(=N\OC)C(=O)NC)c1 [compound 55] | 3% | 1% | 13% | 5% |

| Structure (SMILES) | % PHAKPA (F129L) Disease level P2 at 4 ppm [1] | % PHAKPA (F129L) Disease level P2 at 16 ppm [1] | % PHAKPA (F129L) Disease level P6 at 4 ppm [2] | % PHAKPA (F129L) Disease level P6 at 16 ppm [2] |
| --- | --- | --- | --- | --- |
| CNC(=O)/C(=N/OC)c1cccc(C)c1CO/N=C(\C)c1cccc(C#CC(F)(F)F)c1 [compound 57] | 25% | 8% | 43% | 15% |
| CO/N=C(/C(=O)OC)c1cccc(C)c1CO/N=C(\C)c1ccc(Cl)c(C(F)(F)F)c1 [compound 59] | 67% | 20% | 63% | 11% |
| CCc1cccc(/C(=N\OC)C(=O)OC)c1CO/N=C(\C)c1cccc(C(F)(F)F)c1 [compound 61] | 70% | 15% | 90% | 18% |
| CCc1cccc(/C(=N\OC)C(=O)NC)c1CO/N=C(\C)c1cccc(C(F)(F)F)c1 [compound 62] | 43% | 0% | 60% | 3% |
| CO/N=C(/C(=O)OC)c1cccc(C)c1CO/N=C(\C)c1ccc(-c2cc(C)on2)cc1 [compound 63] | 90% | 77% | 93% | 77% |
| CNC(=O)/C(=N/OC)c1cccc(C)c1CO/N=C(\C)c1ccc(-c2cc(C)on2)cc1 [compound 64] | 87% | 73% | 80% | 43% |
| CO/N=C(/C(=O)OC)c1cccc(C)c1CO/N=C(\C)c1cc(C)cc(C(F)(F)F)c1 [compound 65] | 93% | 77% | 100% | 87% |
| CO/N=C(/C(=O)OC)c1cccc(C)c1CO/N=C(\C)c1cccc(-c2noc(C(F)(F)F)n2)c1 [compound 66] | 100% | 70% | 93% | 87% |
| CNC(=O)/C(=N/OC)c1cccc(C)c1CO/N=C(\C)c1cccc(-c2noc(C(F)(F)F)n2)c1 [compound 67] | 67% | 2% | 80% | 30% |
| CNC(=O)/C(=N/OC)c1cccc(C)c1CO/N=C(\C)c1cccc(C(F)(F)F)c1F [compound 69] | 2% | 0% | 13% | 0% |
| CO/N=C(/c1cccc(/C(C)=N/OCc2c(C)cccc2/C(=N\OC)C(=O)OC)c1)C(F)(F)F [compound 70] | 30% | 0% | 10% | 1% |
| CNC(=O)/C(=N/OC)c1cccc(C)c1CO/N=C(\C)c1cccc(/C(=N/OC)C(F)(F)F)c1 [compound 71] | 2% | 0% | 6% | 0% |
| CO/N=C(/C(=O)OC)c1cccc(C)c1CO/N=C(/c1ccccc1)C(F)F [compound 72] | 100% | 87% | 93% | 80% |
| CO/N=C(/C(=O)OC)c1cccc(C)c1CO/N=C(\C)c1cccc(C2CC2(Cl)Cl)c1 (stereo not drawn) [compound 74] | 27% | 6% | 16% | 3% |
| CNC(=O)/C(=N/OC)c1cccc(C)c1CO/N=C(\C)c1cccc(C2CC2(Cl)Cl)c1 (stereo not drawn) [compound 75] | 8% | 0% | 13% | 1% |
| CO/N=C(/C(=O)OC)c1cccc(C)c1CO/N=C(\C)c1cccc(OC)c1 [compound 78] | 40% | 1% | 30% | 1% |
| CNC(=O)/C(=N/OC)c1cccc(C)c1CO/N=C(\C)c1cccc(OC)c1 [compound 79] | 21% | 2% | 44% | 4% |
| CO/N=C(/C(=O)OC)c1cccc(C)c1CO/N=C(\C)c1cccc(OC(F)F)c1 [compound 80] | 50% | 10% | 30% | 3% |
